Laboratory results reported in ChEMBL document CHEMBL1201862, “PubChem BioAssay data set” (2004).
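Protocol summary: plate cells (96-well), add compound at 5 concentrations, incubate 48 h, interpolate endpoints linearly. GI50 marks 50% less growth.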 Calls of active or inactive are those of the source. No stated cut-off is given here; in the data, active = GI50 up to about 1.1 µM and inactive = higher.

Columns and labels:
Assay in all cases: inhibition of tumour cell growth, NCI panel, 48 h
[1] = tested on: OVCAR-4
[2] = tested on: OVCAR-5
[3] = tested on: NCI-H522
[4] = tested on: NCI-H226
[5] = tested on: MCF7
[6] = tested on: 786-0
[7] = tested on: MDA-N
[8] = tested on: UO-31
[9] = tested on: MDA-MB-435
[10] = tested on: RXF 393
[11] = tested on: NCI-H23
[12] = tested on: HCC 2998
[13] = tested on: EKVX
[14] = tested on: HT-29
[15] = tested on: U-251
[16] = tested on: MOLT-4
[17] = tested on: HL-60
[18] = tested on: M14
[19] = tested on: SNB-19
[20] = tested on: SF-295

| SMILES | GI50 [1] | GI50 [2] | GI50 [3] | GI50 [4] | GI50 [5] | GI50 [6] | GI50 [7] | GI50 [8] | GI50 [9] | GI50 [10] | GI50 [11] | GI50 [12] | GI50 [13] | GI50 [14] | GI50 [15] | GI50 [16] | GI50 [17] | GI50 [18] | GI50 [19] | GI50 [20] |
| --- | --- | --- | --- | --- | --- | --- | --- | --- | --- | --- | --- | --- | --- | --- | --- | --- | --- | --- | --- | --- |
| Cc1cccc(C)c1NC(=O)/C(CC(=O)CC(c1ccccc1)c1c(O)c2ccccc2oc1=O)=N/O (stereo not given) | > 100 µM (inactive) | > 100 µM (inactive) | > 100 µM (inactive) | > 100 µM (inactive) | > 100 µM (inactive) | > 100 µM (inactive) | > 100 µM (inactive) | > 100 µM (inactive) | > 100 µM (inactive) | > 100 µM (inactive) | > 100 µM (inactive) | > 100 µM (inactive) | > 100 µM (inactive) | > 100 µM (inactive) | > 100 µM (inactive) | > 100 µM (inactive) | > 100 µM (inactive) | > 100 µM (inactive) | > 100 µM (inactive) | > 100 µM (inactive) |
| O=C1Nc2ccccc2N/C1=C\C(=O)C(F)F | > 100 µM (inactive) | > 100 µM (inactive) | > 100 µM (inactive) | > 100 µM (inactive) | > 100 µM (inactive) | > 100 µM (inactive) | > 100 µM (inactive) | > 100 µM (inactive) | > 100 µM (inactive) | > 100 µM (inactive) | > 100 µM (inactive) | > 100 µM (inactive) | 14.9 µM (inactive) | > 100 µM (inactive) | > 100 µM (inactive) | > 100 µM (inactive) | > 100 µM (inactive) | > 100 µM (inactive) | > 100 µM (inactive) | > 100 µM (inactive) |
| CCC(=C/[C@H](C)C/C=C/C(C)=C/[C@@H](C)C(=O)[C@@H](C)[C@H](O)[C@@H](C)CC)/C=C/[C@H]1CC=CC(=O)O1 [CALLYSTATIN A] | < 0.0012 µM (active) | < 0.0012 µM (active) | < 0.0012 µM (active) | 0.0168 µM (active) | < 0.0012 µM (active) | < 0.0012 µM (active) | < 0.0012 µM (active) | < 0.0012 µM (active) | < 0.0012 µM (active) | < 0.0012 µM (active) | < 0.0012 µM (active) | < 0.0012 µM (active) | < 0.0012 µM (active) | < 0.0012 µM (active) | < 0.0012 µM (active) | 0.0887 µM (active) | < 0.0012 µM (active) | < 0.0012 µM (active) | < 0.0012 µM (active) | < 0.0012 µM (active) |
